According to patent publication US6608086B2, “Dihydropyridines and new uses thereof” (Synaptic Pharmaceutical Corporation, priority 1993, dated 2003):
Structures can show the parent of a compound that is named as a salt. Where two headings read alike, the source gives them in different places.

Columns and labels:
[1] = target: T1, α1B Human Adrenergic Receptor (Homo sapiens, UniProt P35368); assay: Radioligand binding, [3H]prazosin, cloned human α1B adrenergic receptor
T1 construct: The entire coding region of α1B (1563 bp); expressed in transfected cells
T1 sequence (P35368 1-520): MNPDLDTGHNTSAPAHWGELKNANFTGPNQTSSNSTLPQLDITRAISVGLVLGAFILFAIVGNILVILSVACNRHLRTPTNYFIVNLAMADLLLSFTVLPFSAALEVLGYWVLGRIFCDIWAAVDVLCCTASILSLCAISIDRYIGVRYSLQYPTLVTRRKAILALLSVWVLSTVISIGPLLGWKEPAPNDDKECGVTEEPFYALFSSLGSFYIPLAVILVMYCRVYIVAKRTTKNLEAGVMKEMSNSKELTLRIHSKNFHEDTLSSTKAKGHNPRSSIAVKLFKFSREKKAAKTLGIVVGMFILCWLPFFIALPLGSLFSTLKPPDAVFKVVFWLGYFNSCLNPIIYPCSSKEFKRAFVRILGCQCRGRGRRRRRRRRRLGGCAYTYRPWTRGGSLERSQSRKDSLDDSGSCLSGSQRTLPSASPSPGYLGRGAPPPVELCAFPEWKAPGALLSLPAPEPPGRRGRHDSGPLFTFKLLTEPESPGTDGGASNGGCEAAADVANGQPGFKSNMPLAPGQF
Procedure, shortened: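 Membranes from stably transfected LM(tk−) cells, resuspended in 50 mM Tris-HCl, 1 mM MgCl2, 0.1% ascorbic acid, pH 7.5, were incubated with 0.5 nM [3H]prazosin for 20 min at 37° C. Nonspecific binding defined with 10 μM phentolamine; bound ligand separated by GF/B filtration.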

[2] = target: T2, α1C Human Adrenergic Receptor (Homo sapiens, UniProt P35348); assay: Radioligand binding, [3H]prazosin, cloned human α1C adrenergic receptor
T2 construct: The entire coding region of α1C (1401 bp); expressed in transfected cells
T2 sequence (P35348 1-466): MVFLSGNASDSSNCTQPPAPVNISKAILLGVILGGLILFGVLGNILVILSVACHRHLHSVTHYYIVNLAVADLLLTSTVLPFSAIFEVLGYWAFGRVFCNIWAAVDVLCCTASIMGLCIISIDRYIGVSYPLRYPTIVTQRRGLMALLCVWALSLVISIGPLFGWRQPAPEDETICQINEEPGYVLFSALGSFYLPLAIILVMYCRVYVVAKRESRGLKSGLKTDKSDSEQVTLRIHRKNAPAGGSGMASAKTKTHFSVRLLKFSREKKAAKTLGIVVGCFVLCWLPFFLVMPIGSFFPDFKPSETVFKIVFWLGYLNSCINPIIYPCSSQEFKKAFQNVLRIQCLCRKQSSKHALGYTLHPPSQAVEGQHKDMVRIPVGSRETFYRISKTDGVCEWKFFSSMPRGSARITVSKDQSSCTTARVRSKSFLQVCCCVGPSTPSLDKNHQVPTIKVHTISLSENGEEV
Procedure, shortened: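 Membranes from LM(tk−) cells stably expressing the cloned human α1C receptor were incubated with 0.5 nM [3H]prazosin at 37° C. for 20 min in 50 mM Tris-HCl, 1 mM MgCl2, 0.1% ascorbic acid, pH 7.5. Nonspecific binding was defined with 10 μM phentolamine, and bound ligand was separated by GF/B filtration.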

α2A receptor = target: T3, α2A receptor (Homo sapiens, UniProt P08913); assay: Competition binding, [3H]rauwolscine, human α2A receptor
T3 construct: host or cells: LM(tk-) cells, line L-α2A
T3 sequence (P08913 1-465): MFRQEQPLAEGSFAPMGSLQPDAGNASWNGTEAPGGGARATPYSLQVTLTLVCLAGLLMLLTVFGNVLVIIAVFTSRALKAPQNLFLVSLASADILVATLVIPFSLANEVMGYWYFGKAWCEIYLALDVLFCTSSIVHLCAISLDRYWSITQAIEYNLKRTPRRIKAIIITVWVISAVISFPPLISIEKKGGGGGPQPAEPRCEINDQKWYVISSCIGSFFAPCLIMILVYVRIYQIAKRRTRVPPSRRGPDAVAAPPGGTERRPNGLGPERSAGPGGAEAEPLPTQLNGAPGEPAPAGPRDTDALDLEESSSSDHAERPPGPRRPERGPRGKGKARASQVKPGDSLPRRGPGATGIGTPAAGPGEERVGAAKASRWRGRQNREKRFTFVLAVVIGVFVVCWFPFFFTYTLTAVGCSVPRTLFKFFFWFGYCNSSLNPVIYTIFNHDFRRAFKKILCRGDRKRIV
Procedure, shortened: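 Filter-bound [3H]rauwolscine (0.5 nM) was measured after equilibrium competition with test antagonists on lysates of LM(tk−) cells stably transfected with each human α2 subtype. Buffer: 25 mM glycylglycine, pH 7.6 at room temperature; 10 μM phentolamine gave nonspecific binding.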

[3] = cloned human receptor in LM(tk-) cell membranes, SEM and n in lines below, read-out: pKi alpha-1 1b (converted)
[4] = cloned human receptor in LM(tk-) cell membranes, SEM and n in lines below, read-out: pKi alpha-1 1c (converted)
[5] = pKi alpha-1 1b, cloned human receptor in LM(tk-) cell membranes, SEM and n in lines below
[6] = pKi alpha-1 1c, cloned human receptor in LM(tk-) cell membranes, SEM and n in lines below
[7] = [3H]rauwolscine, LM(tk-) cell line L-α2A, SEM and n in lines below, read-out: pKi alpha-2 2a (converted)
[8] = pKi alpha-1 1b, cloned human α1B receptor, LM(tk−) cell membranes
[9] = pKi alpha-1 1c, cloned human α1C receptor, LM(tk−) cell membranes
[10] = [3H]rauwolscine, human α2A receptor, LM(tk−) cells, read-out: pKi alpha-2 2a (converted)

Structure (SMILES) | Ki [1, 3] [nM] | Ki [2, 4] [nM] | Ki (α2A receptor) [nM] | Ki [1, 5] [nM] | Ki (α2A receptor; [7]) [nM] | also measured
COC(=O)C1=C(C)NC(C)=C(C(=O)NCCCN2CCC(c3ccccc3)(c3ccccc3)CC2)C1c1ccc(I)cc1 (stereo not drawn) [Example 13, 1,4-Dihydro-4-(4-iodophenyl)-3-methoxycarbonyl-2,6-dimethyl-5-(N-(3-(4,4-diphenylpiperidin-1-yl)propyl)carboxamido)pyridine] | 166 | 7.24 | 1260 |  |  | 
CCC1=C(C(N)=O)C(c2ccc([N+](=O)[O-])cc2)C(C(=O)NCCCN2CCC3(CC2)C(=O)NCN3c2ccccc2)=C(CC)N1 (stereo not drawn) [Example 105, 5-Carboxamido-2,6-diethyl-1,4-dihydro-4-(4-nitrophenyl)-3-{N-[3-(1-phenyl-4-oxo-1,3,8-triazaspiro[4.3]decan-8-yl)propyl]}carboxamidopyridine hydrochloride hydrate] |  |  | 1260 |  |  | Ki ([1]; cloned human α1B receptor, LM(tk−) cell membranes, read-out: pKi alpha-1 1b (converted)): 3160 nM; Ki ([2]; cloned human α1C receptor, LM(tk−) cell membranes, read-out: pKi alpha-1 1c (converted)): 692 nM
COC(=O)C1=C(C)NC(C)=C(C(=O)NCCCN2CCC(c3ccccc3)(c3ccccc3)CC2)C1c1ccc(Cl)c(Cl)c1 (stereo not drawn) [Example 24, 4-(3,4-Dichlorophenyl)-1,4-dihydro-3-methoxycarbonyl-2,6-dimethyl-5-(3-(D 44-diphenylpiperidin-1-yl)propylcarboxamido)pyridine] | 115 | 1.86 | 912 |  |  | 
COC(=O)C1=C(C)NC(C)=C(C(=O)NCCCN2CCC(c3ccccc3)(c3ccccc3)CC2)C1c1cc[n+]([O-])cc1 (stereo not drawn) [Example 9, 1,4-Dihydro-3-methoxycarbonyl-2,6-Dimethyl-4-(1-oxido-4-pyridyl)-5-(N-(3-(4,4-diphenylpiperidin-1-yl)propyl)carboxamido)pyridine] |  |  |  | 339 | 2190 | Ki [2, 6]: 24 nM
CCC1=C(C(N)=O)C(c2ccc([N+](=O)[O-])cc2)C(C(=O)NCCCN2CCC(C)(c3ccccc3)CC2)=C(CC)N1 (stereo not drawn) [Example 106, 5-Carboxamido-2,6-diethyl-1,4-dihydro-3-{N-[3-(4-Methyl-4-phenylpiperidin-1-yl)propyl]}carboxamido-4-(4-nitrophenyl)pyridine hydrochloride hydrate] |  |  |  |  |  | Ki [1, 8]: 933 nM; Ki [2, 9]: 15.1 nM; Ki (α2A receptor; [10]): 324 nM
CCC1=C(C(N)=O)C(c2ccc([N+](=O)[O-])cc2)C(C(=O)NCCCN2CCC(c3ccccc3)(c3ccccc3)CC2)=C(CC)N1 (stereo not drawn) [Example 42, 5-carboxamido-2,6-diethyl-1,4-dihydro-4-(4-nitrophenyl)-3-{N-[3-(4,4-diphenylpiperidin-1-yl)propyl]}carboxamidopyridine] |  |  |  | 282 | 324 | Ki [2, 6]: 1.26 nM
CC1=C(C#N)C(c2ccc([N+](=O)[O-])cc2)C(C(=O)NCCCN2CCC(c3ccccc3)(c3ccccc3)CC2)=C(C)N1 (stereo not drawn) [Example 37] | 200 | 22.9 | 708 |  |  | 
COC(=O)C1=C(C)NC(C)=C(C(=O)NCCCN2CCC(c3ccccc3)(c3ccccc3)CC2)C1c1ccc(F)cc1 (stereo not drawn) [Example 20, 4-(4-Fluorophenyl)-1,4-dihydro-3-methoxycarbonyl-2,6-dimethyl-5-(N-(3-(4,4-diphenylpiperidin-1-yl)propyl)carboxamido)pyridine] | 120 | 3.8 | 1780 |  |  | 
COC(=O)C1=C(C)NC(C)=C(C(=O)NCCCN2CCC(c3ccccc3)(c3ccccc3)CC2)C1c1ccc2ccccc2c1 (stereo not drawn) [Example 22] | 138 | 36.3 | 1580 |  |  | 
COC(=O)C1=C(C)NC(C)=C(C(=O)NCCCN2CCC(c3ccccc3)(c3ccccc3)CC2)C1c1ccc(Cl)cc1 (stereo not drawn) [Example 10, 4-(4-Chlorophenyl)-1,4-dihydro-5-methoxycarbonyl-2,6-Dimethyl-5-(N-(3-(4,4-diphenylpiperidin-1-yl)propyl)carboxamido)pyridine] | 123 | 1.78 | 2340 |  |  | 
CC1=C(C(N)=O)C(c2cccc([N+](=O)[O-])c2)C(C(=O)NCCCN2CCC(c3ccccc3)(c3ccccc3)CC2)=C(C)N1 (stereo not drawn) [Example 61, 5-Carboxamido-1,4-dihydro-2,6-dimethyl-4-(3-nitrophenyl)-3-{N-[3-(4,4-diphenylpiperidin-1-yl)propyl]}carboxamidopyridine] |  | 3.8 |  | 427 | 759 | 
COC(=O)C1=C(C)NC(C)=C(C(=O)NCCCN2CCC(c3ccccc3)(c3ccccc3)CC2)C1c1cccnc1 (stereo not drawn) [Example 14, 1,4-Dihydro-3-methoxycarbonyl-2.6-dimethyl-5-(N-(3-(4,4-diphenylpiperidin-1-yl)propyl)carboxamido)-4-(3-pyridyl)pyridine] |  |  |  | 2630 | 2880 | Ki [2, 6]: 40.7 nM
COC(=O)C1=C(C)NC(c2ccoc2)=C(C(=O)NCCCN2CCC(c3ccccc3)(c3ccccc3)CC2)C1c1ccc([N+](=O)[O-])cc1 (stereo not drawn) [Example 43, 2-(Furan-3-yl)-, 4-dihydro-5-methoxycarbonyl-6-methyl-4-(4-nitrophenyl)-3-(N-(3-(4,4-diphenylpiperidin-1-yl)propyl)carboxamidopyridine, hydrochloride salt] |  |  |  | 182 | 661 | Ki [2, 6]: 2.4 nM
CC1=C(C(=O)NCCCN2CCC(c3ccccc3)(c3ccccc3)CC2)C(c2ccc([N+](=O)[O-])cc2)C(C(=O)NC(C)C)=C(C)N1 (stereo not drawn) [Example 156, 1,4-Dihydro-3-(N-isopropyl) carboxamido-2,6-dimethyl-4-(4-nitrophenyl)-5-{N-[3-(^414-diphenylpiperidin-1-yl)propyl]}carboxamidopyridine] |  |  |  |  |  | Ki [1, 8]: 676 nM; Ki [2, 9]: 95.5 nM; Ki (α2A receptor; [10]): 316 nM
CCC1=C(C(N)=O)C(c2ccc([N+](=O)[O-])cc2)C(C(=O)NCCCN2CCC(c3ccccc3)(c3ccccc3)CC2)=C(C)N1 (stereo not drawn) [Example 41, 3-Carboxamido-2-ethyl-1,4-dihydro-6-methyl-4-(4-nitrophenyl)-3-{N-[3-(4,4-diphenylpiperidin-1-yl)propyl]}carboxamidopyridine] |  |  |  | 295 | 427 | Ki [2, 6]: 1.82 nM
CC(C)C1=C(C(N)=O)C(c2ccc([N+](=O)[O-])cc2)C(C(=O)NCCCN2CCC(c3ccccc3)(c3ccccc3)CC2)=C(C(C)C)N1 (stereo not drawn) [Example 127] |  |  |  |  |  | pKi alpha-1 1b ([1]; cloned human α1B receptor, LM(tk−) cell membranes): 6.79; Ki [2, 9]: 55 nM; pKi alpha-2 2a (α2A receptor; [3H]rauwolscine, human α2A receptor, LM(tk−) cells): 6.17
CCC1=C(C(=O)NCCCN2CCC(c3ccccc3)(c3ccccc3)CC2)C(c2ccc([N+](=O)[O-])cc2)C(C(=O)OC(C)(C)C)=C(COCCN=[N+]=[N-])N1 (stereo not drawn) [Example 139] |  |  |  |  |  | Ki [1, 8]: 141 nM; Ki [2, 9]: 23.4 nM; Ki (α2A receptor; [10]): 832 nM
